For the assay, the system named is CT26^G12C murine colon carcinoma cells. The assay is described as follows: Anti-tumor study, CT26^G12C tumors grown subcutaneously in immunocompetent BALB/c mice. It is filed as in vivo. The conditions noted are these: for Survival rate compared to the control group / Tumor return: Example 1, study end day 54. On the procedure: All pathogen-free animals used in the studies below were housed in a controlled, pathogen-free environment with the following conditions: temperature (19-23° C.), humidity (55% 10%), photoperiod (12 h light/dark cycle), and air exchange. Animals were housed in individually vented cages, with food and water provided ad libitum.
Following testing materials were used for the preclinical, in vivo studies below: vehicle (0.5% HPMC/0.1% Tween 80), AZD4625 (0.5% HPMC/0.1% Tween 80), Compound of Formula IV (0.5% HPMC/0.1% Tween 80) and AZD6738 (10% DMSO/40% PG/50% WFI). For the monotherapies, the vehicle and the inhibitors were dosed orally in a volume of 0.05-0.1 mL/10 g. For the combination therapies, AZD4625 or Compound of Formula IV were dosed 4 or 2 hours after the AM dose of AZD6738.
Tumors were measured three times a week by caliper and the volumes were calculated using elliptical formula (pi/6×width×width×length). Animal bodyweight and tumor condition were also recorded for the duration of the study. Subject mice remained on study until tumor size reached 1.5 cm^3 for anti-tumor studies and 0.7 cm^3 for the rechallenge study, clinical signs were observed, or until the study end date.
(§1) For the study, CT26^G12C murine colon carcinoma cells, engineered to express the KRAS^G12C mutation, were grown subcutaneously in BALB/c mice with an intact immune system. To prepare the subject mice, 5×10^5 and 5×10^4 CT26^G12C (G12C clone P5E6) cells were implanted subcutaneously into the right flank of female BALB/c mice (Envigo UK, Strain ID: HSD-162) or female nude-Foxn1nu mice (Envigo UK, Strain ID: HSD-069), respectively. Once a mean volume of approximately 0.2 cm^3 tumor formed, subject mice were randomized into relevant treatment and control groups and treated with vehicle control, AZD4625 or AZD6738 in monotherapy, or in combination therapy for 4 weeks. AZD4625 was dosed daily and AZD6738 was dosed twice daily on a 7 day-on, 7 day-off schedules for the treatment period (FIG. 1A). Tumor growth and bodyweights of animals were monitored during and post-treatment. Subject mice remained on study until tumor size reached 1.5 cm^3, clinical signs were observed, or to the study end date (day 54).
as §1, with “vehicle control, AZD4625, Compound of Formula IV, or AZD6738” for “vehicle control, AZD4625 or AZD6738”, “monotherapy, or AZD4625 and AZD6738 or Compound of Formula IV and AZD6738 in combination” for “monotherapy, or in combination”, “weeks. AZD4625 and Compound of Formula IV were dosed daily” for “weeks. AZD4625 was dosed daily”, “period (FIG. 2A). Tumor growth” for “period (FIG. 1A). Tumor growth”, “study end date. Mice in the AZD4625 monotherapy and combination groups were monitored up to 65 days post-implant while mice in the Compound of Formula IV monotherapy and combination groups were monitored up to 119 days post-implant.” for “study end date (day 54).”
CT26^G12C murine colon carcinoma cells were grown subcutaneously in BALB/c mice with an intact immune system as described in Examples 1 and 2. […] Tumor growth and body weights of animals were monitored during and post-treatment. Subject mice remained on study until tumor size reached 1.5 cm^3, clinical signs were observed, or to the study end.

[1] abbreviates: Example 2, 4 weeks oral treatment, FIG. 2B.
Where [2] appears, read: Example 1, 4 weeks oral treatment, compared to control group, FIG. 1B.
[3] abbreviates: Example 5, 4 weeks treatment, compared to vehicle or to KRAS^G12C inhibitor monotherapy, FIG. 5A.

With `C=CC(=O)N1CCN2Cc3cc(C#CC)c(-c4c(O)cccc4Cl)c(F)c3OC[C@H]2C1` [Compound of Formula IV, 1-[(12aR)-9-(2-chloro-6-hydroxyphenyl)-10-fluoro-8-(prop-1-yn-1-yl)-3,4,12,12a-tetrahydro-6H-pyrazino[2,1-c][1,4]benzoxazepin-2(1H)-yl]prop-2-en-1-one], the Tumor growth response result under setting [1] was “tumor regression”. Moreover, the “Tumors returned after drug cessation” value (Example 2, monitored up to 119 days post-implant) is recorded as 8 out of 9.

For the compound `C[C@@H]1COCCN1c1cc(C2([S@](C)(=N)=O)CC2)nc(-c2ccnc3[nH]ccc23)n1` [AZD6738, 4-{4-[(3R)-3-methylmorpholin-4-yl]-6-[1-((R)—S-methylsulfonimidoyl)cyclopropyl]pyrimidin-2-yl}-1H-pyrrolo[2,3-b]pyridine], the “Survival rate compared to the control group” value is on record as “extended survival rate” and the Tumor return entry is listed as “most tumors ultimately returned”. In addition, under setting [2], the Tumor growth response result is recorded as “delayed tumor growth”. In addition, under setting [3], the Tumor growth response entry is reported as “no or weak activity”.

With `C=CC(=O)N1C[C@@H]2CCOc3c(Cl)c(-c4c(O)cccc4F)c(F)c4ncnc(c34)N2C[C@H]1C` [AZD4625, 1-[(6aS,9R)-3-chloro-1-fluoro-2-(2-fluoro-6-hydroxyphenyl)-9-methyl-5,6,6a,7,9,10-hexahydro-8H-pyrazino[1′,2′:5,6][1,5]oxazocino[4,3,2-de]quinazolin-8-yl]prop-2-en-1-one], the “Survival rate compared to the control group” value is given as “extended survival rate” and the Tumor return entry was “most tumors ultimately returned”. Under setting [2], the Tumor growth response result is “delayed tumor growth”. In addition, under setting [1], the Tumor growth response entry was “tumor regression”.

On to `C=CC(=O)N1CCN(c2nc(=O)n(-c3c(C)ccnc3C(C)C)c3nc(-c4c(O)cccc4F)c(F)cc23)[C@@H](C)C1` (atropisomer, axis not shown) [sotorasib, reference compound], for which the “Tumor return after drug cessation” value (Example 5) is recorded as “most tumors returning after drug cessation”. Moreover, the Tumor growth response entry under setting [3] is reported as “initial tumor growth delay”. For the setting “Example 5, FIG. 5B”, the Survival rates result was “increased survival rates”.

The values above are taken from patent publication US20260240854A1, “COMBINATIONS OF KRAS INHIBITOR AND ATR INHIBITOR FOR THE TREATMENT OF CANCER” (ASTRAZENECA AB, priority 2023, published 2026).
